How the values were obtained:
patients with SSc [1] = experiment: Example 2: brachial artery flow-mediated dilation (FMD), double-blind randomized crossover, BH4 vs placebo; format: in vivo, human
Excerpt: Methods: Subjects. Eleven subjects with SSc (3 men and 8 women) were recruited from the University of Utah SSc clinic to participate in the current study. All subjects had either a diagnosis of SSc as accepted by the American College of Rheumatology or early SSc as described by Leroy and […]. All subjects gave their written informed consent before participation. Protocol approval and written informed consent were obtained, according to the University of Utah and Salt Lake City Veterans Affairs Medical Center (VAMC) Institutional Review Board, in accordance with the principles outlined in the Declaration of Helsinki. All data collection took place in the Utah Vascular Research Laboratory at the Salt Lake City VAMC Geriatric Research, Education, and Clinical Center. Experimental Design. […] Subjects consumed a standardized breakfast and were administered oral BH4 (10 mg/kg) or placebo five hours prior arrival at the laboratory. Measurements were taken at the same time of day to eliminate any diurnal effects and after having abstained from food (not including the standardized breakfast), alcohol, caffeine, cardiovascular-acting medications, and exercise for ≥12 hours. […] Heart rate was monitored from a standard 3-lead ECG. […] FMD was quantified as the maximal change in BA diameter after cuff release. NMD was quantified as the maximal change in BA diameter after sublingual nitroglycerin supplementation. […] Shear rate was calculated according to the equation: shear rate (s-1)=(Vmean·8)/vessel diameter. Blood flow was calculated as per the equation: blood flow (mL·min)=(blood velocity×π)×(vessel diameter/2)2×(60). Cumulative shear rate cumulative area under the curve at the time of peak BA vasodilation was integrated with the trapezoidal rule and calculated as per the following equation: τ([…]]). Forearm vascular conductance was calculated according to the equation: […]. Forearm vascular resistance was calculated according to the equation: […]. […] Paired, one-tailed t-tests were used to identify significant changes in measured variables between placebo and BH4 conditions. […]

patients with SSc [2] = experiment: Example 2: seated brachial artery blood pressure and mean arterial pressure, BH4 vs placebo; format: in vivo, human; settings: five hours after oral BH4 10 mg/kg
Experimental: Experimental Design. A controlled, randomized, double-blind, crossover experimental design with two conditions, BH4 and placebo, was used, with a washout period of ≥5 days between conditions. Subjects consumed a standardized breakfast and were administered oral BH4 (10 mg/kg) or placebo five hours prior arrival at the laboratory. Measurements were taken at the same time of day to eliminate any diurnal effects and after having abstained from food (not including the standardized breakfast), alcohol, caffeine, cardiovascular-acting medications, and exercise for ≥12 hours. In premenopausal women, measurements were performed during the early follicular phase of the menstrual cycle.
Blood Pressure. Seated BA blood pressure measurements were made with a semi-automated BP device (Tango+, SunTech, Morrisville, N.C.) in triplicate after 5 min in the upright seated position with the arm at heart level and under quiet, comfortable, ambient (˜22° C.) laboratory conditions. Mean arterial pressure (MAP) was calculated using the equation: ⅓ systolic blood pressure+⅔ diastolic blood pressure.
Statistics. Statistics were performed using SPSS software (IBM, Chicago, Ill.). Paired, one-tailed t-tests were used to identify significant changes in measured variables between placebo and BH4 conditions. Statistical significance was set at P<0.05 for all analyses. Unless indicated otherwise, data are presented as Means±SEM.

patients with SSc [3] = tested on: patients with SSc
[4] = 11 SSc patients, five hours after oral BH4 10 mg/kg, P<0.05
[5] = one SSc subject, BH4 vs placebo, data not shown

## C[C@H](O)[C@H](O)[C@H]1CNc2nc(N)[nH]c(=O)c2N1 [BH4, tetrahydrobiopterin]
Patients with SSc [1]; [4]
  absolute FMD, improvement vs. placebo: 44%
  percentage FMD, improvement vs. placebo: 48%
Patients with SSc [1]; second study, placebo FMD 3.2%, corresponds to highest tertile of FMD
  FMD value in the BH4 condition: 5.6%
Patients with SSc [2]; Means ± SEM, P>0.05 vs placebo
  casual seated diastolic blood pressure: 68±2 mmHg
  casual seated systolic blood pressure: 109±5 mmHg
Patients with SSc [2]; P<0.05 vs placebo
  MAP, difference in the BH4 condition compared to placebo: ~−2 mmHg
Patients with SSc [3]; human, in vivo
  blood pressure: 125/77
Patients with SSc [3]; one SSc subject, BH4 vs placebo, FIG. 7A
  FMD, increase compared to placebo: 73%
Patients with SSc [3]; one SSc subject, BH4 vs placebo, FIG. 7B
  peak hyperemia, increase compared to placebo: 63%
Patients with SSc [3]; one SSc subject, BH4 vs placebo, FIG. 7C
  area under the curve for hyperemia, increase compared to placebo: ~160%
Patients with SSc [3]; [5]
  resting blood flow in the forearm, increase compared to placebo: ~20%
  resting blood flow in the leg, increase compared to placebo: 34%
